Test results: patent US20070116823A1, “HIGH-POTENCY SWEETENER FOR HYDRATION AND SWEETENED HYDRATION COMPOSITION” (THE COCA-COLA COMPANY, priority 2005, published 2007)

How the values were obtained:
[1] = test system: panel of experts in the sensory evaluation of foods and beverages; test: Sensory evaluation of sweetness linger by expert panel; format: in vivo; conditions: for Sweetness linger rating / Sweetness linger: scale 0=no to 5=high sweetness linger; for Sweetness Linger rating as defined by the protocol: reference points of the scale, REBA control sample 500 ppm
Experimental: Sensory evaluation of the samples prepared in Example Set G was carried out under the following protocol, similar to that described hereinabove. In this test protocol, none of the samples were swallowed. All samples were expectorated and the mouth was rinsed with water after the tasting. Immediately upon sensing maximal sweetness, the sample was expectorated, the mouth was rinsed with water and the rate of sweetness decay (“Sweetness Linger”) was measured, where attention was focused on the sweetness 3-4 min after the water rinse. After sample tasting was complete, a salty oyster cracker was chewed followed by a water rinse, and at least 5 minutes followed before tasting the next sample. The sweetness linger was rated by a panel of experts in the sensory evaluation of foods and beverages using the following scale: 0=no sweetness linger, 1=very slight sweetness linger, 2=slight sweetness linger, 3=moderate sweetness linger, 4=moderately high sweetness linger, 5=high sweetness linger.
The “Sweetness Linger” rating for sucrose observed by this protocol is defined as 0. The Sweetness Linger of a 500 ppm of REBA control sample is defined as 5. Experimental samples were tasted by the same protocol, always allowing sufficient time between samples to ensure re-equilibration of the sensory system. Re-tasting of control samples during the course of the experiment was allowed and encouraged.
The comparison taste test was performed between two controls and addition of sweet taste improving additive on the onset and/or sweetness linger.
Sweet taste improving compositions were combined with a REBA solution to determine their effect on sweetness linger. Screening of the initial sample, or further dilutions, allowed identification of concentrations which were just above-threshold, herein defined as “near-threshold concentrations.” The near-threshold additive concentrations, a 6- to 100-fold higher higher additive concentration (depending on the off-taste intensity), and a mid-level additive concentration (halfway between the near-threshold and higher additive concentration) were evaluated to determine the effect on sweetness linger of a REBA solution.
Formulations of a 500 ppm REBA in a phosphoric acid solution (75%) at a pH of 2.5 with phosphoric acid or a pH of 3.1 with citric acid and potassium citrate were prepared prior to the addition of the additives at the three levels of concentration.
\Sensory evaluation using the protocol described in Example Set C then was used to evaluate the sweetness linger of the REBA solutions.

[2] = Rate of dissolution of rebaudioside A forms in H2O at 25° C.; format: physicochemical; conditions: in words

| Compound | Sweetness Linger rating as defined by the protocol [1] | Rate of dissolution in H2O at 25° C. [2] | further results |
| --- | --- | --- | --- |
| OC[C@H]1O[C@@](CO)(O[C@H]2O[C@H](CO)[C@@H](O)[C@H](O)[C@H]2O)[C@@H](O)[C@@H]1O [sucrose] | 0 |  | Sweetness linger rating ([1]; Set G control: 8 g of sugar in 100 ml of citrate buffer): 0; Sweetness linger rating ([1]; Set H control: 10 g of sugar in 100 ml carbon treated water, phosphoric acid to pH 2.4-2.5): 0 |
| rebaudioside A | 5 |  | Sweetness linger ([1]; Example Set G: 400 ppm REBA in citric acid/potassium citrate composition equivalent to diet lemon-lime beverage, with or without additive): 5; Sweetness linger ([1]; Example Set H: REBA in carbon-treated water, phosphoric acid (75%) to pH 2.4-2.5, with or without additive): 5 |
| rebaudioside A [Form 1] |  | Very low |  |
| rebaudioside A [Form 2] |  | Intermediate |  |
| rebaudioside A [Form 3] |  | High |  |
| rebaudioside A [Form 4] |  | High |  |
